Results reported in patent US12059486B2, “Cosmetic compositions” (Rodan & Fields, LLC, priority 2021, dated 2024).

How the values were obtained:
[1] = system: human epidermal melanocytes; assay: Melanin content in human epidermal melanocytes; type: cell-based; conditions: 7 days
Method: Test materials were added to exponentially growing cultures and the experiment was terminated 7 days later.

[2] = Free radical scavenging activity (ABTS); type: biochemical; conditions: 0.06 mg/mL; expressed as % water control
Method: Free radical scavenging activity was tested of different experimental conditions expressed as % water control. The positive control, ascorbic acid (Ref. 5), reached the expected level of inhibitory activity technically validating the experiments.

elastin = assay: Output of ECM components in adult human dermal fibroblast culture model (Method E): elastin; type: cell-based; conditions: 10 ng/mL; day 7; fixed cells; corrected for cell numbers, % of water control
Method: (§1) Method E: Metabolism, Proliferation and Output of ECM Components in the Adult Human Dermal Fibroblast Culture Model. Test materials were dissolved in sterile cell culture medium at ×2 highest concentration tested and samples were added in triplicates to exponentially growing adult human dermal fibroblasts (aHDF; 7,000 cells/well of a 96 well plate; p.7 Cell Applications, San Diego, CA, cat. #106-05a; lot #3014). Cultures were maintained in DMEM/10% FBS. At the end of the experiments (day 7), macromolecules of interest were quantified either in the cell culture medium (decorin, type I collagen, type III collagen and hyaluronate) or on fixed cells (total insoluble proteins and elastin), by ELISA and sulforhodamine B, as indicated in Tables II-IV. Total insoluble (cytoskeletal) proteins were quantified to determine the effect of test materials on cell proliferation (cell numbers or cell #) according to the method described by Voigt et al., 2005. These values were also used to standardize decorin, type I collagen, type III collagen, elastin and hyaluronate output data to cell numbers, using the Equation 1: (Standardized Cell #)=[macromolecule of interest raw read out value]/cell number raw read out value] […]
(§2) This standardization was performed separately for each well. […] All colorimetric measurements were performed using Molecular Devices microplate reader MAX190 and SoftMax3.1.2PRO software. […]

decorin = assay: Output of ECM components in adult human dermal fibroblast culture model (Method E): decorin; type: cell-based; conditions: 10 ng/mL; day 7; corrected for cell numbers, % of water control
Method: as §1, §2

soluble decorin = assay: Soluble decorin in adult human dermal fibroblasts (Method F); type: cell-based; conditions: 10 ng/mL; day 7; standardized to cell numbers, % of water control
Method: (§3) Method F: Test materials were dissolved in sterile cell culture medium at x2 highest concentration tested and samples were added in triplicates to exponentially growing adult human dermal fibroblasts (7,000 cells/well of a 96 well plate; p.7 Cell Applications, San Diego, CA, cat. #106-05a; lot #3014). Cultures were maintained in DMEM/10%FBS. At the end of the experiment (day 7), decorin was quantified in the cell culture medium (soluble fraction) and on fixed cells (insoluble fraction) by ELISA. Total insoluble (cytoskeletal) proteins were quantified to determine the effect of test materials on cell proliferation (cell numbers or cell #) according to the method described by Voigt et al., 2005. These values were also used to standardize decorin output data to cell numbers, using Equation 1. This standardization was performed separately for each well. Each experimental condition and control was assayed at least in triplicates. The effect of test materials on mitochondrial metabolism was measured with the MTT assay, which measures the activity of mitochondrial dehydrogenases, such as succinate dehydrogenase, implicated in the respiratory electron transport chain in mitochondria (Berridge & Tan; 1993).

Type III collagen = assay: Output of ECM components in adult human dermal fibroblast culture model (Method E): type III collagen; type: cell-based; conditions: 10 ng/mL; day 7; corrected for cell numbers, % of water control
Method: as §1, §2

hyaluronate = assay: Output of ECM components in adult human dermal fibroblast culture model (Method E): hyaluronate; type: cell-based; conditions: 10 ng/mL; day 7; corrected for cell numbers, % of water control
Method: as §1, §2

Type I Collagen = assay: Output of ECM components in adult human dermal fibroblast culture model (Method E): type I collagen; type: cell-based; conditions: 10 ng/mL; day 7; corrected for cell numbers, % of water control
Method: as §1, §2

insoluble decorin = assay: Insoluble decorin in adult human dermal fibroblasts (Method F); type: cell-based; conditions: 10 ng/mL; day 7; standardized to cell numbers, % of water control
Method: as §3

## O=c1cc(CO)occ1O [Ref. 4, Kojic acid]
[1]; 50 ug/mL
  Melanin cell number-adjusted: 103 % Control
[1]; 200 ug/mL
  Melanin cell number-adjusted: 46 % Control

## O=C1O[C@H]([C@@H](O)CO)C(O)=C1O [Ref. 5, ascorbic acid]
[2]
  ABTS: 0 % Control

## basic fibroblast growth factor [bFGF]
elastin
  elastin: 62 % CTR
decorin
  decorin: 57 % CTR
Soluble decorin
  Soluble decorin: 67 % CTR
Type III collagen
  Type III collagen: 87 % CTR
hyaluronate
  Hyaluronian: 72 % CTR
Type I Collagen
  Type I Collagen: 67 % CTR
Insoluble decorin
  Insoluble decorin: 87 % CTR
